Active and inactive are the calls of the source.
Assays:
[1] = A cytotoxicity screen of small molecule inhibitors of the PhoP region in Salmonella typhi identified in the primary screen. [Related pubchem assays: 1850, 1864, 1985 ]; format: functional
[2] = target: Polyadenylate-binding protein 1 (Homo sapiens, UniProt P11940); assay: PABP inhibition in translation initiation, SAR follow-up (AID 435018); format: functional
[3] = target: Eukaryotic translation initiation factor 4H (Homo sapiens, UniProt Q15056); assay: inhibitors of translation initiation factor eIF4H – SAR follow-up (AID 435011); format: functional
HEK293 [4] = assay: NOD2 signaling inhibitors in MDP-stimulated cells, cell-based, uHTS, luminescence (AID 2001); format: functional; conditions: Homo sapiens
HEK293 [5] = assay: inhibition of NOD1-driven NF-kB reporter – cell-based, luminescence, uHTS, primary screen (AID 1578); format: functional; conditions: Homo sapiens
HEK293 [6] = assay: cells; format: functional, cell-based; conditions: Homo sapiens
HEK293 [7] = assay: cells; conditions: Homo sapiens
Tumor necrosis factor = Tumor necrosis factor (Homo sapiens, UniProt P01375); assay: analog potency on TNFa NF-kB signaling – cell-based, revised, SAR follow-up (AID 2337); format: functional
Sequence of Tumor necrosis factor (P01375 whole entry): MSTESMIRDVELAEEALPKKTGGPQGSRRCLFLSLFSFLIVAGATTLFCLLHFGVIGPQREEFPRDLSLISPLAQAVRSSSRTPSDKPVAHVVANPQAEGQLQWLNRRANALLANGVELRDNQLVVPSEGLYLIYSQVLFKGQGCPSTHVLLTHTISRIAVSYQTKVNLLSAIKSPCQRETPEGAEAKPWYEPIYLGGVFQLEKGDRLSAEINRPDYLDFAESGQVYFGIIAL

HEK293 [8] = assay: cells; format: functional, cell-based; conditions: Homo sapiens; remark: listed apart in the source
[9] = target: T1, Nucleotide-binding oligomerization domain-containing protein 1 (Homo sapiens, UniProt Q9Y239); assay: blockers of NOD1 pathway activity – revised, SAR follow-up (AID 2333); format: functional
T1 sequence (Q9Y239 whole entry): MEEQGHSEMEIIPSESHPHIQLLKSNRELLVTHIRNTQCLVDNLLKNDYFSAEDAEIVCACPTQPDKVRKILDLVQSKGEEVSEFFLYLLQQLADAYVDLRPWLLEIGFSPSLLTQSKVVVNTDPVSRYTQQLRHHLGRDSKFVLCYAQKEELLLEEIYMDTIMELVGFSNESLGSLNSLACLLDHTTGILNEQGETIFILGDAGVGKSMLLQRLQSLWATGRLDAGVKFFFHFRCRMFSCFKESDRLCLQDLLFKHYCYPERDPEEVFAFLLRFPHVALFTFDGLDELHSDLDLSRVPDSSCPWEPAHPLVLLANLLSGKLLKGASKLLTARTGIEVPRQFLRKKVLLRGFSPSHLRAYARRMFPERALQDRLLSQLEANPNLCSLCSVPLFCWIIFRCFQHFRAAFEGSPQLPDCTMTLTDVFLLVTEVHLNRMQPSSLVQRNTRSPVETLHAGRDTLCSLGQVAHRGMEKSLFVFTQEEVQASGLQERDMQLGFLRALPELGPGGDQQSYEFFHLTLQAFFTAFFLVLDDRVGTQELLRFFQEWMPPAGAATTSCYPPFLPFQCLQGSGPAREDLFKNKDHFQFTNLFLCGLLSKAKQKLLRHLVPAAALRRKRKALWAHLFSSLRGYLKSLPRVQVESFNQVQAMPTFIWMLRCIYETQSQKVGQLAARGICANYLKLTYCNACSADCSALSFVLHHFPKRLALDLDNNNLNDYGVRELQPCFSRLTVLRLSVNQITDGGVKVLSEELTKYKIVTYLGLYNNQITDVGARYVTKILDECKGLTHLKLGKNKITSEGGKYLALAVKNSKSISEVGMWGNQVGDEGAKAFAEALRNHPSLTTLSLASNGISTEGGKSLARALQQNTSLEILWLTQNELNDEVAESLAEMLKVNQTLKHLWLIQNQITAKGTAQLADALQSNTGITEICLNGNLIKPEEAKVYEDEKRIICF

[10] = Luminescence Cell-Based Dose Response HTS to Identify Activators of Luciferase Translation or Activity in H4 […] Cells. [Related pubchem assays: 1829 (Project Summary), 1814 (Primary HTS)]; format: functional
[11] = target: Dual specificity tyrosine-phosphorylation-regulated kinase 1A (Rattus norvegicus, UniProt Q63470); format: biochemical, Homo sapiens
[12] = target: T2, Short transient receptor potential channel 4 (Mus musculus, UniProt Q9QUQ5); assay: block of DAMGO-driven TRPC4 calcium entry – cell-based, HEK293 TRPC4/mu-opioid, Fluo-4 calcium, dose response (AID 434942); format: functional;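 note: potency of inhibitors blocking the TRPC4 calcium response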
T2 sequence (Q9QUQ5 whole entry): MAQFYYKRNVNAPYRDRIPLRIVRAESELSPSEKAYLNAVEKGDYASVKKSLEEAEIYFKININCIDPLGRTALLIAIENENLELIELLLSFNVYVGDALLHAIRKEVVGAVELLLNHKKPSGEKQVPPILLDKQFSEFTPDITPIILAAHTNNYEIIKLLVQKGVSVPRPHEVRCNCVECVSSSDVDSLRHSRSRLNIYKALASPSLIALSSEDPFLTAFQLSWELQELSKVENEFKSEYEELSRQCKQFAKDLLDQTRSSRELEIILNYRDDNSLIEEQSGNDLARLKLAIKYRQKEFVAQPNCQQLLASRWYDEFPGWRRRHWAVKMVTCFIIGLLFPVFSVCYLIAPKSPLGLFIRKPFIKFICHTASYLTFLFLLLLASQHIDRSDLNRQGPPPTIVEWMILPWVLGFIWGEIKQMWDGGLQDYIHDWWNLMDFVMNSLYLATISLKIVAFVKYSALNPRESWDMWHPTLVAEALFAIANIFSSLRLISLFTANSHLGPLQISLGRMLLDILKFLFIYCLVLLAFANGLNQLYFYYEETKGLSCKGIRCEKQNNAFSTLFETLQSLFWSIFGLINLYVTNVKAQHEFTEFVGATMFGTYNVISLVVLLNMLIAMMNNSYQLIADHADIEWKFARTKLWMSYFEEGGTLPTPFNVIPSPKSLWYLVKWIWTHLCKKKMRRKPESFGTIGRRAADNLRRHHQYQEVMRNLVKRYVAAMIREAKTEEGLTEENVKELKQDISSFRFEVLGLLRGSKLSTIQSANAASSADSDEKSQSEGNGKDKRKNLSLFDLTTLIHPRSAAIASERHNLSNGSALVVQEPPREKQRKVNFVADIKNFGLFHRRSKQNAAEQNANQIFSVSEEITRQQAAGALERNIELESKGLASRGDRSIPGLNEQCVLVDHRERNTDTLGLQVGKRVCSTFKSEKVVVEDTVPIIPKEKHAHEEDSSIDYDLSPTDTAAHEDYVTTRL

Aspartyl aminopeptidase = target: T3, Aspartyl aminopeptidase (Plasmodium falciparum 3D7, UniProt Q8I2J3)
T3 sequence (Q8I2J3 whole entry): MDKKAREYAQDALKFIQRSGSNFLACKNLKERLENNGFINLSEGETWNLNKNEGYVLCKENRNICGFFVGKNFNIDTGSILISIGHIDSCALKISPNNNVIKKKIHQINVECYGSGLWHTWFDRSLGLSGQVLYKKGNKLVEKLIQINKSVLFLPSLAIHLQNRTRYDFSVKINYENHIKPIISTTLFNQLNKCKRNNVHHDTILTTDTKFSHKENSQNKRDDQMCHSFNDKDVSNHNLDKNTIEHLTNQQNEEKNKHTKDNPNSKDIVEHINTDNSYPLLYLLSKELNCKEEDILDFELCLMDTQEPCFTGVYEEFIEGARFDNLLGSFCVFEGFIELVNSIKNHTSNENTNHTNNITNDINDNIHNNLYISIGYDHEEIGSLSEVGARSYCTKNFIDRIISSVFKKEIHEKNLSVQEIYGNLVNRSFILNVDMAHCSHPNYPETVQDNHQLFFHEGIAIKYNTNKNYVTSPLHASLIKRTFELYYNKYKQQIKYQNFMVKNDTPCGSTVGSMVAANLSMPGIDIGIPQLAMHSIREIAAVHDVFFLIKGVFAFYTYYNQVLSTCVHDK

H4 = assay: Luminescence Cell-Based Dose Response HTS to Identify Activators of 5'UTR Stem-Loop Driven Prion Protein mRNA Translation in H4 Neuroglioblastoma Cells. [Related pubchem assays: 1829 (Project Summary), 1814 (Primary HTS)]; format: functional; conditions: Homo sapiens
Procathepsin L = Procathepsin L (Homo sapiens, UniProt P07711)
Sequence of Procathepsin L (P07711 whole entry): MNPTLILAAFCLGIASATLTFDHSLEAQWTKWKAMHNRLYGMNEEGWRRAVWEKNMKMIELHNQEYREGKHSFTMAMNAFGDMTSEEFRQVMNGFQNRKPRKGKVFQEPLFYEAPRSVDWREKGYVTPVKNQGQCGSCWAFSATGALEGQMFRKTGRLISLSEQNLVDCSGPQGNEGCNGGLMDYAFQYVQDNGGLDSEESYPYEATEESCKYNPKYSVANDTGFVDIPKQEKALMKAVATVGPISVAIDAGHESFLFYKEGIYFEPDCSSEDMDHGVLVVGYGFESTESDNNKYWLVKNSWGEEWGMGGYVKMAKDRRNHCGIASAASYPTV

INS1 = assay: INS-1E survival protection against cytokine death – cell-based, luminescence, retest, dose response (AID 449756); format: functional; conditions: Rattus norvegicus;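 note: cell death triggered by IL-1 beta plus TNF-alpha plus IFN-gamma mixture; protective hits raise ATP signal compared with cytokine alone wells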
[13] = target: Nucleotide-binding oligomerization domain-containing protein 2 (Homo sapiens, UniProt Q9HC29); assay: inhibition of NOD2-driven NF-kB reporter – cell-based, luminescence, uHTS, HEK293 (AID 1566); format: functional
cells [14] = format: functional, cell-based
cells [15] = format: functional, cell-based; remark: listed apart in the source
HEK293 [16] = assay: cells; format: functional, cell-based; conditions: Homo sapiens; remark: listed apart in the source
[17] = Luminescence Cell-Based Dose Retest to Confirm Inhibitors of Cancer Stem Cells. [Related pubchem assays (depositor defined):AID2717, AID2721]; format: functional; conditions: Homo sapiens
SUMO-activating enzyme = SUMO-activating enzyme (Homo sapiens, UniProt Q9UBT2); assay: blockers of UBC9-mediated SUMO conjugation – biochemical, AlphaScreen, SUMOylation inhibitor project, confirmation (AID 2018); format: functional
Sequence of SUMO-activating enzyme (Q9UBE0 whole entry): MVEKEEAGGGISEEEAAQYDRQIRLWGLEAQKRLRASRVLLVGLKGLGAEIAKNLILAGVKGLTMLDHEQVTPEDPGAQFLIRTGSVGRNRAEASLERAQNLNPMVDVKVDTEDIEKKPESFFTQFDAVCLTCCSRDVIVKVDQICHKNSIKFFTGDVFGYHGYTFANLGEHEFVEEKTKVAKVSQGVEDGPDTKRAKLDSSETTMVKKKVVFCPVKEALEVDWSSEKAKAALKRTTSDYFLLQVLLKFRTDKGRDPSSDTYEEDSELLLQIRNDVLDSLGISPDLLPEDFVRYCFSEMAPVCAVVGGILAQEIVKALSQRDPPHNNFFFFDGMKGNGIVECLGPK
Sequence of SUMO-activating enzyme (Q9UBT2 whole entry): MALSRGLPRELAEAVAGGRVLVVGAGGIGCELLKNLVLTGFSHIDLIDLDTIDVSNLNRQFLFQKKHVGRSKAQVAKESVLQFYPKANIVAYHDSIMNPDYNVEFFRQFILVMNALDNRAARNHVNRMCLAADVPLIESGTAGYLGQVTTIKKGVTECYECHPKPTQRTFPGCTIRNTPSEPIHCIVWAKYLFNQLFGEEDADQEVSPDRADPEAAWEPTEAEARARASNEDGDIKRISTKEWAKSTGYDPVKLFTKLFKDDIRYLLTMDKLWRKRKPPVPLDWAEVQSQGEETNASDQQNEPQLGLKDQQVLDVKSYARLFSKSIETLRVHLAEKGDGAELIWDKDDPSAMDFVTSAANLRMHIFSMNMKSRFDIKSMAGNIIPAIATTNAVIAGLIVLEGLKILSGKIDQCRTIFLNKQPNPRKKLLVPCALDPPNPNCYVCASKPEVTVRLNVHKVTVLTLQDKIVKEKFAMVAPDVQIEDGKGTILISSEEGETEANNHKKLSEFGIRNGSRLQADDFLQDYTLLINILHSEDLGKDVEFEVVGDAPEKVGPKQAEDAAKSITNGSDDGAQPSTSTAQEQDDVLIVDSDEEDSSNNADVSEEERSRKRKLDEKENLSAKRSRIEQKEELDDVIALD

[18] = target: T4, Kappa-type opioid receptor (Homo sapiens, UniProt P41145); format: functional
T4 sequence (P41145 whole entry): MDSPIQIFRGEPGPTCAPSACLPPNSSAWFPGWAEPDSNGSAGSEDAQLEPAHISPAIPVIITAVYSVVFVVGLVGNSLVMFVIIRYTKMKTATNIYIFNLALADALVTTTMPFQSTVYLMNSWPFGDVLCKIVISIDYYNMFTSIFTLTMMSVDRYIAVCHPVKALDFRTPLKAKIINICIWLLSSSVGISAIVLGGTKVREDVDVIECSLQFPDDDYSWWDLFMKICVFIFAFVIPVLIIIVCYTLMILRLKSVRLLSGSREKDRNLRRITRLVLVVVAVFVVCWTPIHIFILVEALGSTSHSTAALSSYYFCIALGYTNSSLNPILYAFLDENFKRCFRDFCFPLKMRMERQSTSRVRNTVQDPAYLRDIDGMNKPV

Protein skinhead-1 = target: T5, Protein skinhead-1 (Caenorhabditis elegans, UniProt P34707); format: functional
T5 sequence (P34707 whole entry): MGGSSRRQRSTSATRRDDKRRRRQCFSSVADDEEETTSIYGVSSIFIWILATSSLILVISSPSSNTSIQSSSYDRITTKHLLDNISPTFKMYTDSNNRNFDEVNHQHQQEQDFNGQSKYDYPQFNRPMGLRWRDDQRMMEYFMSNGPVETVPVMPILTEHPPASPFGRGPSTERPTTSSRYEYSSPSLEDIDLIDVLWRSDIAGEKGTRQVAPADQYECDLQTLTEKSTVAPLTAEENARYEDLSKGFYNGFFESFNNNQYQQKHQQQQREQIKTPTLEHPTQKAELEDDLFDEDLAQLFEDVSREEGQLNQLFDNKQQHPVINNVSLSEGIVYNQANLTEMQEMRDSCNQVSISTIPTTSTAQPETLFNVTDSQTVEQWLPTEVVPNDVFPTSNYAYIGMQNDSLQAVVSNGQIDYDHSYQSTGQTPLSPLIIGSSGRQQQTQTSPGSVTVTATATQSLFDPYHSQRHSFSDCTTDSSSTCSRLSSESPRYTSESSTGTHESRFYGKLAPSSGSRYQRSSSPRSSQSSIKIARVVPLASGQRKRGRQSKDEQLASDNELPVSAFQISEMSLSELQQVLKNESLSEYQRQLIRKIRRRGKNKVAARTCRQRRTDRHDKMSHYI

[19] = target: T4, Kappa-type opioid receptor; format: functional; remark: listed apart in the source
Beta-galactosidase = Beta-galactosidase (Escherichia coli, UniProt Q8VNN2); format: functional
Sequence of Beta-galactosidase (Q8VNN2 whole entry): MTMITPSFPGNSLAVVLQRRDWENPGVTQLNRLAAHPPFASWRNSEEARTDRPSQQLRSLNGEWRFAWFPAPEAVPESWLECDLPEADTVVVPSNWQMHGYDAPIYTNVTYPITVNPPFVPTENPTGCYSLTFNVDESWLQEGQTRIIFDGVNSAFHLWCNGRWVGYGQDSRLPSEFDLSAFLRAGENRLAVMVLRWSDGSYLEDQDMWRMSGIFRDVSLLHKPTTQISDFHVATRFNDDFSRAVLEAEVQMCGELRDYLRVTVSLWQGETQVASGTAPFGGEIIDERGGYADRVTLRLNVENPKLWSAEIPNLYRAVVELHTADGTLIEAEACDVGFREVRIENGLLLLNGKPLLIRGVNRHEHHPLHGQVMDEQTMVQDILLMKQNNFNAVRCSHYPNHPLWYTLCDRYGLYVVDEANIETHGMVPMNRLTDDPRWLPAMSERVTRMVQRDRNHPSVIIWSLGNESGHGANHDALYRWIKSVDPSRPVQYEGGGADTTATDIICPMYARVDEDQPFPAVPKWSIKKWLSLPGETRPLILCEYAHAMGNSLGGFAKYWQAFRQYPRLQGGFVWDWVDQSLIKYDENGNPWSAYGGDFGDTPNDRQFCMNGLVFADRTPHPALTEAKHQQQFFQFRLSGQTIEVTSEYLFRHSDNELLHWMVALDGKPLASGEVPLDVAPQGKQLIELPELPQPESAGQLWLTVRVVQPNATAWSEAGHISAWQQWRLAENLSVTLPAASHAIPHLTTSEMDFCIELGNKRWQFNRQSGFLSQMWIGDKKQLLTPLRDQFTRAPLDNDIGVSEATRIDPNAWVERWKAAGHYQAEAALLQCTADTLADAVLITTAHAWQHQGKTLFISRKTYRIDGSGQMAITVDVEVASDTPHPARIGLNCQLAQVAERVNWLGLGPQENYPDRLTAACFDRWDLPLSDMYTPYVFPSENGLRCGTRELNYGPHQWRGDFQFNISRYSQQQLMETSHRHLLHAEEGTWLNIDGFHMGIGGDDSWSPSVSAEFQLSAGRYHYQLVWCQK

[20] = target: T6, Voltage-gated N-type calcium channel alpha-1B subunit/Amyloid beta A4 precursor protein-binding family A member 1 (Homo sapiens, UniProt Q00975+Q02410); assay: disruptors of Mint-PDZ/N-type channel peptide interaction – biochemical, HTRF, set 2, SAR follow-up (AID 434980); format: functional
[21] = target: T6, Voltage-gated N-type calcium channel alpha-1B subunit/Amyloid beta A4 precursor protein-binding family A member 1; assay: disruptors of Mint-PDZ/N-type channel peptide interaction – biochemical, HTRF, SAR follow-up (AID 2489); format: functional
BJ = assay: growth inhibition of engineered Ras-driven BJ cells – cell-based, alamar blue fluorescence, cherrypicked samples, dose response (AID 2631); format: functional; conditions: Homo sapiens;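 note: confirmatory dose-response assay in RAS-dependent BJ fibroblasts engineered with TERT, LT and ST, with cytotoxicity read by fluorescence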
Nonstructural protein 1 = Nonstructural protein 1 (Influenza A virus, UniProt Q194T2); format: functional, Influenza A virus (A/California/07/2009(H1N1))
Sequence of Nonstructural protein 1 (Q194T2 whole entry): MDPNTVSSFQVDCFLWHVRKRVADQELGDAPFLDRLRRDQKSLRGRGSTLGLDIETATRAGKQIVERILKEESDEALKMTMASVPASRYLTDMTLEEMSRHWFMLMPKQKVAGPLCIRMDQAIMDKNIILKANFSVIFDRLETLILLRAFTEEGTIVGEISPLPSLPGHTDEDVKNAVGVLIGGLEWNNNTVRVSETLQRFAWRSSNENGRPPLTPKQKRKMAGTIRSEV

[22] = target: Heat shock protein HSP 90-alpha (Homo sapiens, UniProt P07900); format: functional, organism-based

Sequence of Polyadenylate-binding protein 1 (P11940 whole entry): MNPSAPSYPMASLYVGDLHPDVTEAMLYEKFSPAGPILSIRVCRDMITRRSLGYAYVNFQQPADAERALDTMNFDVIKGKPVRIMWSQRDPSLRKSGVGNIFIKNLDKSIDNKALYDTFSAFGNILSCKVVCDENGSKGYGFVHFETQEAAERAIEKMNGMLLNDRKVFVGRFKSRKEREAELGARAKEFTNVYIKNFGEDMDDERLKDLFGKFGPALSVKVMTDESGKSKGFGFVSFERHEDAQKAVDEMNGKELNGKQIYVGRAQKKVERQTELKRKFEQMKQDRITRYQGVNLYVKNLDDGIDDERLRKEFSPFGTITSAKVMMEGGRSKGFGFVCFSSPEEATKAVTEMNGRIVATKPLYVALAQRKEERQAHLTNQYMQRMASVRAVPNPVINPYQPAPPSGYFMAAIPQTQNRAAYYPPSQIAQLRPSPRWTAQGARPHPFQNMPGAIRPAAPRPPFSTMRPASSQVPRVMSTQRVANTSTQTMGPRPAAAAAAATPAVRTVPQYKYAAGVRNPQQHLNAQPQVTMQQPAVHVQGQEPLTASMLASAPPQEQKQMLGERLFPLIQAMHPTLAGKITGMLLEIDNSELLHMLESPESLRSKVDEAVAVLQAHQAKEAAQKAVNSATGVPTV

CCCCOc1ccc(-c2nnn(CC(=O)Nc3ncc(CC(=O)OCC)s3)n2)cc1
EC50 [1]: > 50 µM (active)

O=C(Nc1ccc(Cl)cc1)C1CCN(C(=O)c2cccs2)CC1
IC50 [2]: > 100 µM (inactive)
IC50 [3]: > 100 µM (inactive)

COc1ccccc1CCNC(=O)CSc1ccc(-c2ccco2)nn1
IC50 [2]: > 100 µM (inactive)
IC50 [3]: > 100 µM (inactive)

Cc1oc(-c2cc(F)ccc2F)nc1CN1CCN(c2ncnc3ccccc23)CC1
IC50 (HEK293 [4]): 8.53 µM (active)
EC50 (HEK293 [5]): 4.42 µM (active)
IC50 (HEK293 [6]): 19.9 µM (active)
IC50 (HEK293 [7]): > 20 µM (inactive)
IC50 (Tumor necrosis factor): 5.97 µM (active)
IC50 (HEK293 [8]): 11.1 µM (active)
IC50 [9]: 6.29 µM (active)

Oc1ccc(-c2csc(-c3ccccc3)n2)cc1O
EC50 [10]: > 120 µM (not active)
AC50 [11]: 6.72 µM (active)
EC50 [12]: 4.73 µM (active)
IC50 (Aspartyl aminopeptidase): 2.78 µM (active)
EC50 (H4): 6.54 µM (active)
IC50 (Procathepsin L): > 59.6 µM (not active)

CN(Cc1cccnc1)C(=O)c1cc(COc2ccc3ncccc3c2)on1
IC50 (HEK293 [4]): 8.18 µM (active)
EC50 (HEK293 [5]): 3.64 µM (active)
IC50 (HEK293 [6]): 17.3 µM (active)
IC50 (HEK293 [7]): > 20 µM (inactive)
IC50 (Tumor necrosis factor): 5.24 µM (active)
IC50 (HEK293 [8]): 6.23 µM (active)
AC50 (INS1): 3.92 µM (active)
EC50 [13]: 9.78 µM (active)
EC50 (cells [14]): > 350 µM (not active)
EC50 (cells [15]): > 350 µM (not active)
IC50 (HEK293 [16]): > 20 µM (inactive)
IC50 [9]: 2.92 µM (active)

CCc1ccc(NC(=O)C(CC)Sc2nc3cc4c(cc3c(=O)n2Cc2ccco2)OCO4)cc1 (configuration not stated)
AC50 [17]: 8.32 µM (active)
IC50 (SUMO-activating enzyme): 48.9 µM (active)

O=C(NCc1cccs1)C(=O)NCC(c1ccco1)N1CCN(c2ccc(F)cc2)CC1 (configuration not stated)
EC50 [1]: > 50 µM (active)

CC(=O)NS(=O)(=O)c1ccc(Nc2ccc([N+](=O)[O-])c3nonc23)cc1
IC50 [18]: 13.9 µM (active)
IC50 (Protein skinhead-1): 34.7 µM (active)
IC50 [19]: > 32 µM
EC50 (Beta-galactosidase): 18.1 µM (active)

COc1ccccc1NC(=O)COC(=O)c1ccc(NC(N)=O)cc1
IC50 [2]: 69.4 µM (active)
IC50 [3]: 17.9 µM (active)

CC12C=CC(C)(O1)C1C(=O)N(c3ccc(F)cc3)C(=O)C12 (configuration not stated)
IC50 [20]: 8.89 µM (active)
IC50 [21]: 10.7 µM (active)

C/C(=N\Nc1ncc(Cl)cc1Cl)c1ccccn1
EC50 (BJ): 0.0209 µM (active)
IC50 [18]: 3.47 µM (active)
IC50 [19]: > 32 µM
EC50 (Beta-galactosidase): > 31.5 µM (inactive)
IC50 (Nonstructural protein 1): 12 µM (active)
AC50 [22]: 1.84 µM (active)

Source: ChEMBL document CHEMBL1201862, “PubChem BioAssay data set” (2004)
